Reference: US20030219764A1, “Biological discovery using gene regulatory networks generated from multiple-disruption expression libraries” (priority 2001, published 2003)

Experiments:
[1] = tested on: mitotic spindle structure in yeast; test: Pathological and microscopic examination of Griseofulvin treated yeast versus CIK1 disrupted yeast; format: cell-based
From the text: CIK1 codes for a protein described in the yeast proteome database (YPD) as a coiled-coil protein of the spindle pole body involved in spindle formation and the congression (nuclear migration) step of karyogamy^(13). Since the action of Griseofulvin is known to affect mitotic spindle formation, which is in agreement with the function of CIK1^(14), we performed a pathological examination of a yeast strain with a disrupted CIK1 gene and yeast affected by Griseofulvin.

[2] = tested on: CIK1; test: Boolean network analysis of joint drug response and gene disruption expression matrices (virtual gene); format: cell-based, Saccharomyces cerevisiae
From the text: In addition to the Boolean methods for gene disruption experiments reported elsewhere^(11), we created a gene expression matrix E from a set of the drug treatment experiments combined with disruptant expression data. In the case of drug generated perturbation, we created a “virtual” gene to represent the drug affect analogous to a gene disruption. We then were able to use standard disruption matrix algorithms designed for disruption based data.
In YPD, 314 genes were defined as “transcription factors”, and 98 of these have previously been studied for control mechanism. The expression profile data of 552 genes including the genes that are controlled by these 98 “transcription factors” were selected from 5871 profiles. Thus we constructed the gene regulatory network from the expression profile data set based on the values of these 552 genes in 120 gene disruption experiments and 20 drug treatment experiments.
However, the use of gene regulatory network models, combined with the drug perturbation data allows for a hierarchical gene regulatory view of the drug's interaction with genes in the transcriptome. To generate this gene network drug perturbation data, we first created a full genome expression library of 542 single-gene disruption mutants. The 120 array data selected from the library was logically joined with the array matrices generated from the Griseofulvin experiments. […]

[3] = tested on: yeast strain BY4741; test: Drug response full-genome cDNA microarray gene expression experiments; format: cell-based, Saccharomyces cerevisiae; conditions: among 552 genes which differed in expression between drug treated and normal yeast; dosages of 10, 50 and 100 mg in 10 ml of DMF; 0, 15, 30, 45 and 60 minutes
Protocol: The yeast strain used in this study is BY4741. To monitor the gene expression profile, cells were pre-grown at 30° C. in YPD (2% polypeptone, 1% yeast extract and 2% glucose) to mid-exponential phase and were exposed with Griseofulvin by adding it to the medium to the concentrations at 0, 10, 25, 50, and 100 mg/ml. The exposed cells were harvested at 0, 15, 30, 45 and 60 min after addition by Griseofulvin and used for RNA extraction. Total RNAs were extracted by the hot-phenol method.
We measured the quantities of 5871 mRNA species from 20 drug treated strains by cDNA microarray assay. A difference in fluorescent strength between Cy3, Cy5 causes bias of the expression quantity ratio. We normalized the expression quantity ratios of each expression profile. […] The logarithm value of the ratio was used to indicate the standard expression level, therefore we found the logarithm value of ratio and calculated the average and standard deviation of these log values (see table1). The Standard Deviation (SD) of expression levels of all spotted genes from the UME6 (YDR207C) disruptant expression array for which UME6 is defined as a “Global Regulator” in YPD^(33) disruptant was 0.4931, therefore we recognized that there are an unacceptable number of errors in array data whose overall SD was larger than 0.5 and eliminated such experiments from analysis. […]

[4] = tested on: mitotic spindle structure in fungi; conditions: cited from earlier work

Q: Which “mitotic spindle structure compared with CIK1 deleted yeast” value ([1]; microscopic examination) does the source give for COC1=CC(=O)C[C@@H](C)[C@]12Oc1c(Cl)c(OC)cc(OC)c1C2=O [Griseofulvin] here?
A: The value was “very similar changes of the spindle body and surrounding organizational structures”.

Q: What about the lethality to yeast ([1]; normal physiological dosage) of the same compound?
A: The lethality to yeast was “neither the treatment with Griseofulvin at normal physiological dosage nor the disruption of CIK1 are lethal”.

Q: And the “suppression of CIK1 expression” value ([2]; among the 8 first-effect genes, across the experiments)?
A: Its value is “strongest suppression effects”.

Q: What about the “genes consistently and significantly suppressed as first effects” value ([2]; at each time and drug concentration) of the same compound?
A: The value was 8 genes.

Q: And the “genes downregulated by over a 2 sigma threshold” value [3]?
A: The value was 183 genes.

Q: What about the “effect on mitotic spindle structure” value [4] of the same compound?
A: The value was “disrupts mitotic spindle structure in fungi to lead to metaphase arrest”.
